Results as given in patent publication US10301255B2, “Hepatitis B antiviral agents” (Enanta Pharmaceuticals, Inc., priority 2015, dated 2019).

Experiments:
HBV = assay: HepAD38 antiviral assay: reduction of viral product accumulation (virion DNA by qPCR; HBsAg/HBeAg ELISA); assay type: cell-based; settings: Hepatitis B virus, 120 h; HepAD38 cells, tetracycline removed; harvest five days after compound addition; 50% reduction of viral product vs no drug controls
Procedure: (§1) Methods: HepAD38 cells are maintained as previously reported (Ladner et at, Antimicrob. Agents Chemother. 1997, […], 1715). Briefly, cells are passaged upon attaining confluency in DMEM/F12 media in the presence of 10% FBS, Penn/Strep, 250 μg/mL G418, and 1 ug/ml tetracycline. Novel compounds are screened by first washing cells three times with PBS to remove tetracycline, and plating in 96 well plates at 35,000 cells/well. Compounds dissolved in DMSO are then diluted 1:200 into wells containing cells. Five days after compound addition, material is harvested for analysis. For an extended 8 day analysis, cells are plated and treated as described above, but media and compound are refreshed on d2 and d5 post initial treatment.
On harvest day, virion DNA is obtained by lysing with Sidestep Lysis and Stabilization Buffer and then quantified via quantitative real time PCR. Commercially available ELISA kits are used to quantitate the viral proteins HBsAg (Alpco) or HbeAg (US Biological) by following the manufacturer's recommended protocol after diluting samples to match the linear range of their respective assays. Irrespective of readout, compound concentrations that reduce viral product accumulation in the cell lysates or supernatants by 50% relative to no drug controls (EC50) are reported; EC50 ranges are as follows: A<1 μM; […].

[1] = Compound toxicity by ATPlite 1 Step (total ATP levels); assay type: cell-based; settings: human; HepAD38 cells, day of harvest; 50% reduction of total ATP vs no drug controls
Procedure: as §1
Additionally, on day of harvest, compound toxicity is evaluated by treating cells with ATPlite 1 Step according to the manufacturer's protocol. Compound concentrations that reduce total ATP levels in wells by 50% relative to no drug controls (CC50) are reported; CC50 ranges are as follows: […].

| Structure (SMILES) | EC50 (HBV) | CC50 [1] |
| --- | --- | --- |
| O=C(Nc1cc(F)c(F)c(F)c1)c1ccc(Cl)c(C(F)(F)CCCO)c1 [Compound 1] | < 1 µM | < 10 µM |
| O=C(Nc1ccc(F)c(Cl)c1)c1ccc(Cl)c(C(F)(F)CCCO)c1 [Compound 17] | > 10 µM |  |
| CC(C)(C)NC(=O)OCCCC(F)(F)c1cc(C(=O)Nc2ccc(Cl)c(C#N)c2)ccc1Cl [Compound 10] | > 10 µM |  |
| N#Cc1cc(NC(=O)c2ccc(Cl)c(C(F)(F)CCCOC(=O)NCc3ccccc3)c2)ccc1Cl [Compound 8] | > 10 µM |  |
| CCNC(=O)OCCCC(F)(F)c1cc(C(=O)Nc2ccc(Cl)c(C#N)c2)ccc1Cl [Compound 7] | > 10 µM |  |
| N#Cc1cc(NC(=O)c2ccc(Cl)c(C(F)(F)CCCOC(=O)Nc3ccccc3)c2)ccc1Cl [Compound 9] | > 10 µM |  |
| CC(F)(CCCO)c1cc(C(=O)Nc2cc(F)c(F)c(F)c2)ccc1Cl (stereo not drawn) [Compound 21] | > 10 µM | > 30 µM |
| N#Cc1ccc(NC(=O)c2ccc(Cl)c(C(F)(F)CCCO)c2)cc1F [Compound 13] | > 10 µM |  |
| OCCCC(F)(F)c1cc(-c2nc(-c3ccc(F)c(Br)c3)c[nH]2)ccc1Cl [Compound 20] | > 10 µM |  |
| COc1ccc(NC(=O)c2ccc(Cl)c(C(F)(F)CCCO)c2)cc1C#N [Compound 5] | > 10 µM |  |
| O=C(Nc1cc(F)c(F)c(F)c1)c1ccc(Cl)c(C(F)CCCO)c1 (stereo not drawn) [Compound 23] | > 10 µM |  |
| O=C(Nc1ccc(F)c(C2CC2)c1)c1ccc(Cl)c(C(F)(F)CCCO)c1 [Compound 15] | > 10 µM |  |
| N#Cc1ccc(NC(=O)c2ccc(Cl)c(C(F)(F)CCCO)c2)cc1Cl [Compound 14] | > 10 µM |  |
| N#Cc1ccc(NC(=O)c2ccc(Cl)c(C(F)(F)CCCO)c2)cc1C(F)(F)F [Compound 19] | > 10 µM |  |
| O=C(Nc1cc(F)c(F)c(F)c1)c1ccc(Cl)c(C(F)(F)CCCF)c1 [Compound 3] | < 1 µM | < 10 µM |
| O=C(Nc1ccc(F)c(C(F)(F)F)c1)c1ccc(Cl)c(C(F)(F)CCCO)c1 [Compound 16] | > 10 µM |  |
| N#Cc1cc(NC(=O)c2ccc(Cl)c(C(F)(F)CCCO)c2)ccc1Cl [Compound 4] | > 10 µM |  |
| COC(=O)OCCCC(F)(F)c1cc(C(=O)Nc2cc(F)c(F)c(F)c2)ccc1Cl [Compound 2] | 1 to 10 µM | 10 to 30 µM |
| O=C(Nc1ccc(C(F)(F)F)c(Cl)c1)c1ccc(Cl)c(C(F)(F)CCCO)c1 [Compound 18] | > 10 µM |  |
| O=C(Nc1cc(F)c(F)c(F)c1)c1ccc(Cl)c(C(O)CCCO)c1 (stereo not drawn) [Compound 22] | > 10 µM |  |
| O=C(Nc1ccc(C2CC2)c(Cl)c1)c1ccc(Cl)c(C(F)(F)CCCO)c1 [Compound 12] | > 10 µM |  |
| COc1ccc(NC(=O)c2ccc(Cl)c(C(F)(F)CCCO)c2)cc1C1CC1 [Compound 6] | 1 to 10 µM |  |
| O=C(Nc1ccc(C(F)(F)F)c(C2CC2)c1)c1ccc(Cl)c(C(F)(F)CCCO)c1 [Compound 11] | > 10 µM |  |
